Experimental data: a melting point compilation (Tetko et al.; mined from patent text by program, amines drawn as free bases though some values may be those of a salt)

With `C[C@@H](C(=O)OCCCCNc1cccc2c1C(=O)c1ccccc1C2=O)N(C)C(=O)OC(C)(C)C` the melting point was 62 °C.
`CCOC(=O)c1cc(SCc2ccccc2)c(Cc2ccccc2)c(S(N)(=O)=O)c1` showed a melting point of 108 to 110 °C.
Work on `NC(=O)c1ccc(N2CCN(CCC3C=Cc4ccccc43)CC2)cc1` (stereo not drawn) yielded a melting point of 207 °C.
With `CCCC1=C(C#N)C(c2cccc(N3CCOCC3)c2)c2c[nH]nc2N1` (stereo not drawn) the melting point was 196 to 200 °C.
With `CCOC(=O)CCN1CCC[C@H](NCc2ccccc2OC)[C@@H]1c1ccccc1` (relative stereo) the melting point was 110 to 112 °C.
With `Nc1ccc(C(=O)N2CCCCCC2=O)cc1` the melting point was 156 to 158 °C.
Compound `Fc1ccc2[nH]cc(CC3C=CCN(Cc4ccccc4)C3)c2c1` (stereo not drawn) has a melting point of 133 to 136 °C.
Compound `CC(=O)N[C@@H](CSc1ccccc1[N+](=O)[O-])C(=O)O` has a melting point of 175 to 176 °C.
`CCCCS(=O)c1ccc(C=O)nc1` (stereo not drawn) gave a melting point of 90 to 91 °C.
Compound `C=C(c1ccc(Br)cc1)c1ccc(OC)cc1` has a melting point of 91.2 to 92.6 °C.
For `OC(CN=CCc1cnc(-c2ccccc2)nc1-c1ccccc1)c1ccccc1` (stereo not drawn), the melting point was 140 to 144 °C.
With `CCCc1c(OCCCCCOc2ccc(-c3cc4ccccc4c(=O)o3)cc2CCC(=O)OCC)ccc2c1OCCC2=O` the melting point was 144 °C.
Compound `COc1cc(C(=O)CCN(C)C)cc(OC)c1OC` has a melting point of 45 to 47 °C.
Work on `CCCCCCCCCCCCOc1ccc(-c2ccc(CCCCC(=O)OCC)cc2)cc1` yielded a melting point of 99 °C.
In the case of `N#CC(=NO)C(=O)NC(=O)NCCCCCC(N)=O`, the melting point was 187 to 189 °C.
`COC(=O)CCC1(CCC(=O)OC)CCC(=O)N1` showed a melting point of 70 to 73 °C.
In the case of `O=C(O)c1ncn2c1CN=C(c1ccccc1Br)c1cc(F)ccc1-2`, the melting point was 280 to 285 °C.
For `O=S1(=O)c2cccc3cccc(c23)N1CCN1CC=C(Cc2c[nH]c3ccc(F)cc23)CC1`, the melting point was 128 °C.
Compound `CC(C)(C)OC(=O)NC1CCN(C(=O)C2CCN(C(=O)OCc3ccccc3)CC2)CC1` has a melting point of 150 to 152 °C.
`Cc1cc(S(N)(=O)=O)cs1` showed a melting point of 102 to 104 °C.
For `O=C(NN=C1c2ccc(F)cc2CC1(O)c1ccc(F)cc1)Nc1ccc(Br)cc1` (stereo not drawn), the melting point was 235 to 237 °C.
Work on `Cn1cc(C#N)c(=O)c2cc3cc(F)c(F)cc3nc21` yielded a melting point of 380 °C.
With `N#C[C@@H](NCc1ccccc1)[C@@H]1CSC(=O)N1Cc1ccccc1` the melting point was 131 to 132 °C.
In the case of `CCCCOc1c(CNC(=O)OC(C)(C)C)n(CC2CC2)c(=O)c2ccc(O)cc12`, the melting point was 164 to 166 °C.
With `CCOC(=O)C(Cc1ccc(C#N)cc1)(NC(C)=O)C(=O)OCC` the melting point was 160 to 163 °C.
`Fc1cccc2sc(C3=CCNCC3)cc12` gave a melting point of 83 to 86 °C.
Compound `COc1ccc2cnc(Nc3ccc(N4CCNCC4)c(F)c3)nc2c1C1CCCC1` has a melting point of 228 to 229 °C.
With `COC(COC(=O)C1=C(C)NC2=C(C(=O)CNC2)C1c1cccc(Cl)c1C)c1ccccc1` (stereo not drawn) the melting point was 160 to 163 °C.
Compound `COc1cc(CCl)ccc1OCc1nc(-c2cccc(OS(C)(=O)=O)c2)oc1C` has a melting point of 112 to 114 °C.
With `CN1CCN(C(=O)c2ccccc2)C1=C(Sc1ccccc1)[N+](=O)[O-]` the melting point was 175 to 178 °C.
For `C=CC(=O)OCCCCCCCCOc1ccc(-c2ccc(OCCCCCCCCOC(=O)C=C)c(F)c2F)c(F)c1F`, the melting point was 60.5 to 61.4 °C.
Compound `COc1ccc2oc(C(=O)O)c(OC)c2c1` has a melting point of 168 °C.
`COc1ccc(C(=O)Nc2ccccc2)cc1NCc1cccc2ccccc12` showed a melting point of 172 to 174 °C.
`COC(=O)c1cc(NC2CCCCC2)c2cc(Cc3ccc(F)cc3)cnc2c1O` showed a melting point of 75.5 to 77.5 °C.
In the case of `COc1cc2cc(C(=O)O)c(C(=O)O)nc2cc1OC`, the melting point was 264 to 266 °C.
In the case of `CCc1oc(-c2ccc(C(F)(F)F)cc2)cc1CCC(=O)Nc1cccc(CSCC(=O)O)c1`, the melting point was 139 to 141 °C.
With `COc1cccc(C2=CCN(C(=O)CSCc3c[nH]c4ccccc34)CC2)c1` the melting point was 115 to 117 °C.
Compound `Nc1ccc(C(=O)O)c2c1OCCO2` has a melting point of 186 °C.
Compound `COc1ccc(Cc2ccc3[nH]c(=S)[nH]c3c2)c(O)c1` has a melting point of 248 to 250 °C.
`COc1ccc2cc(C(Br)Br)ccc2c1` showed a melting point of 116 °C.
With `COC(=O)C1=C(C)NN=C(c2ccco2)C1c1ccccc1Cl` (stereo not drawn) the melting point was 195 °C.
Work on `CC(C)NC(=O)c1c(F)cccc1S(=O)C(C)(C)C` (stereo not drawn) yielded a melting point of 120 to 135 °C.
With `CC(C)(C)c1cc(-n2nc3ccccc3n2)c(O)c(C(C)(C)C)c1` the melting point was 150 to 152 °C.
Work on `Cc1cc(-c2cc(O)c(Cl)cc2F)c(=O)n(C)c1C(F)(F)F` yielded a melting point of 207 to 208 °C.
Compound `CN1c2ccccc2N(C(=O)c2ccccc2)C(=O)c2cccnc21` has a melting point of 181 to 183 °C.
Work on `CCc1coc(Cc2ccc(NC(=O)/C=C/c3cnn(C)c3-c3ccc(F)cc3)cc2)n1` yielded a melting point of 174 to 175 °C.
`CS(=O)(=O)OCC1(c2ccc(Cl)cc2)CCC1` showed a melting point of 66 to 70 °C.
For `CC(=O)OC1CCC2C3CCC4=C([N+](=O)[O-])C(=O)CCC4(C)C3CCC12C` (stereo not drawn), the melting point was 216 to 217 °C.
Compound `Cc1ccc(C(=S)c2ccc(F)cc2)cc1` has a melting point of 88 °C.
`COc1ccc(-c2[nH]c(-c3ccc([N+](=O)[O-])c(C)c3)nc2C(=O)O)cc1` showed a melting point of 229 to 230 °C.
Compound `O=[N+]([O-])c1ccc(C=CC=CC=CC=Cc2ccc([N+](=O)[O-])cc2)cc1` has a melting point of 238 to 240 °C.
For `Cc1nn(C)c2c1c1oc(=O)c(Br)c(O)c1c(=O)n2Cc1ccc(F)cc1`, the melting point was 262 to 264 °C.
Compound `C[Si](C)(C)c1cccc(Cl)c1C(=O)O` has a melting point of 129 to 131 °C.
`CCCSc1nc(N)nc2c1ncn2C1C=CC(CO)C1` (stereo not drawn) gave a melting point of 128 to 130 °C.
Work on `CCOC(=O)c1cn(C2CC2)c2c(F)c(N3CC[C@H](N)C3)c(F)cc2c1=O` yielded a melting point of 227 to 228 °C.
`CCC/C=C/[C@H]1CC[C@H](c2ccc(C(C)=O)cc2)CC1` gave a melting point of 51.2 °C.
In the case of `CC(=NOCc1ccc2nonc2c1)c1ccc(O)c(F)c1`, the melting point was 125 to 126 °C.
`CCNC(=O)c1ccc(Nc2nc(OCC3CCCCC3)c3nc[nH]c3n2)cc1` showed a melting point of 156 to 158 °C.
With `O=C(c1ccccc1)c1ccc(N2CCC(N3C(=O)OCc4ccccc43)CC2)c([N+](=O)[O-])c1` the melting point was 272 to 273 °C.
`Cc1ccnc2c(-c3ccc(C)c4c(C)ccnc34)ccc(C)c12` showed a melting point of 290 to 295 °C.
With `Cc1ccnc2c1C(=O)c1nccc(Cl)c1C2=O` the melting point was over 300 °C.
`CCNCC1CCN(c2c(F)cc3c(=O)c(C(=O)O)cn(-c4ccc(F)cc4)c3c2F)C1` (stereo not drawn) gave a melting point of 249 to 251 °C.
`Nc1cc(Cl)nc(S(=O)(=O)Cc2cccc(Br)c2)n1` gave a melting point of 191 to 192 °C.
`CCCCCCCCCCCCc1cc2ccc(C(=O)OCC)cc2[nH]1` gave a melting point of 83 to 86 °C.
`CCOc1ccc2[nH]c(=O)n(C3CCCC3)c2c1` gave a melting point of 75 °C.
With `CS(=O)(=O)c1ccc(-c2scnc2-c2ccc(F)cc2)cc1` the melting point was 138 to 139 °C.
Work on `CCc1nn(-c2ccc(F)cc2)c2cc(Br)ccc12` yielded a melting point of 72 to 73 °C.
For `CCN1CC(=O)N(c2ccccc2C(F)(F)F)C1=S`, the melting point was 82 to 85 °C.
Compound `O=C1NC(=O)C(Cc2ccccc2)S1` (stereo not drawn) has a melting point of 83 to 86 °C.
Compound `CCCCCCCCCCCCCCCCCCOc1ccc(OCCCc2ccccc2)c(C(=O)N(CC(=O)OCC)CC(=O)OCC)c1` has a melting point of 54 to 55 °C.
Compound `Cn1ncnc1COc1nc2c(cc1-c1ccco1)nnn2-c1ccccc1F` has a melting point of 170 to 173 °C.
`CC1CC(=O)C2OCC1O2` (stereo not drawn) showed a melting point of 122 to 125 °C.
With `O=C(c1ccccc1)c1ccc(OCc2nnn[nH]2)c(Cl)c1Cl` the melting point was 184 to 186 °C.
